Data published in patent US20230302032A1, “ANTIBACTERIAL COMPOSITIONS AND METHODS FOR FABRICATING THEREOF” (Harrow IP LLC, priority 2020, published 2023).
Read-outs that look alike come from different tables or passages of the source. Blank lines part the entries; values can stand above or below the molecule they belong to.

Experiments:
[1] = HPLC potency and stability of stored antibiotic solutions; settings: for Stability of the composition (assay %): composition of Example 2 (with L-glycine);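 as to all read-outs here: stored antibiotic compositions assayed by HPLC for remaining potency, USP acceptance requires at least 90% of nominal concentration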
Experimental: The final product was tested chromatographically (HPLC) for potency and stability after being stored for 6 months. […] According to the USP rules, at least a 90% concentration is required for the product to be acceptable.
The stability of this composition was then monitored for a period of 180 days.

Molecule: Vancomycin
- Stability result, % (HPLC potency) ([1]; Tobramycin-Vancomycin System, aqueous solution, 1.5 % tobramycin, 5% vancomycin, no lidocaine, stored at −4° C. in a dark place, Day 0): 108%
- Stability result, % (HPLC potency) ([1]; Tobramycin-Vancomycin System, aqueous solution, 1.5 % tobramycin, 5% vancomycin, no lidocaine, stored at −4° C. in a dark place, Day 30): 108%
- Stability result, % (HPLC potency) ([1]; Tobramycin-Vancomycin System, aqueous solution, 1.5 % tobramycin, 5% vancomycin, no lidocaine, stored at −4° C. in a dark place, Day 60): 106%
- Stability result, % (HPLC potency) ([1]; Tobramycin-Vancomycin System, aqueous solution, 1.5 % tobramycin, 5% vancomycin, no lidocaine, stored at −4° C. in a dark place, Day 90): 107%
- Stability result, % (HPLC potency) ([1]; Tobramycin-Vancomycin System, aqueous solution, 1.5 % tobramycin, 5% vancomycin, no lidocaine, stored at −4° C. in a dark place, Day 120): 91%
- Stability result, % (HPLC potency) ([1]; Tobramycin-Vancomycin System, aqueous solution, 1.5 % tobramycin, 5% vancomycin, no lidocaine, stored at −4° C. in a dark place, Day 150): 83%
- Stability result, % (HPLC potency) ([1]; Tobramycin-Vancomycin System, aqueous solution, 1.5 % tobramycin, 5% vancomycin, no lidocaine, stored at −4° C. in a dark place, Day 180): 81%
- Stability result, % (HPLC potency) ([1]; Vancomycin alone, 5.0 % aqueous solution, stored in a dark place at room temperature, Day 0): 113%
- Stability result, % (HPLC potency) ([1]; Vancomycin alone, 5.0 % aqueous solution, stored in a dark place at room temperature, Day 30): 106%
- Stability result, % (HPLC potency) ([1]; Vancomycin alone, 5.0 % aqueous solution, stored in a dark place at room temperature, Day 60): 111%
- Stability result, % (HPLC potency) ([1]; Vancomycin alone, 5.0 % aqueous solution, stored in a dark place at room temperature, Day 90): 106%
- concentration of vancomycin ([1]; after 120 days storage, system having no lidocaine (Table 4)): ≤ 91%
- Stability of the composition (assay %) ([1]; Day 0): 104.9%
- Stability of the composition (assay %) ([1]; Day 30): 104.0%
- Stability of the composition (assay %) ([1]; Day 60): 99.1%
- Stability of the composition (assay %) ([1]; Day 90): 99.8%
- Stability of the composition (assay %) ([1]; Day 180): 100.5%
- storage stability alone ([1]; each antibiotic alone, 180 days (Tables 2 and 3)): withstood the storage for 180 days very well
- concentration of vancomycin ([1]; same storage times (120 days and after), lidocaine present in the composition (Table 1)): at least 108%

- Stability of the composition (assay %) (0 days): 102.3%
- Stability of the composition (assay %) (30 days): 106.9%
- Stability of the composition (assay %) (60 days): 98.9%
- Stability of the composition (assay %) (90 days): 97.6%
- Stability of the composition (assay %) (180 days): 97.9%
Molecule: NC[C@H]1O[C@H](O[C@H]2[C@H](O)[C@@H](O[C@H]3O[C@H](CO)[C@@H](O)[C@H](N)[C@H]3O)[C@H](N)C[C@@H]2N)[C@H](N)C[C@@H]1O [Tobramycin, (2S,3R,4S,5S,6R)-4-amino-2-{[(1S,2S,3R,4S,6R)-4,6-diamino-3-{[(2R,3R,5S,6R)-3-amino-6-(aminomethyl)-5-hydroxyoxan-2-yl]oxy}-2-hydroxycyclohexyl]oxy}-6-(hydroxymethyl)oxane-3,5-diol]
- storage stability alone (180 days): withstood the storage for 180 days very well
